Results from patent publication US6391921B1 (priority 2000, dated 2002).

How the values were obtained:
BTK = target: T1, BTK (Homo sapiens, UniProt Q06187); assay: BTK tyrosine kinase assay; format: biochemical; conditions: 1 hour exposure
T1 construct: made in house; host or cells: Sf21 insect cells (baculovirus)
Protocol: Sf21 (IPLB-SF21-AE) cells derived from the ovarian tissue of the fall armyworm Spodotera frugiperda, were obtained from Invitrogen and maintained at 26-28° C. in Grace's insect cell medium supplemented with 10% FBS and 1.0% antibiotic/antimycotic (GIBCO-BRL). Stock cells were maintained in suspension at 0.2-1.6×10^6/ml in 600 ml total culture volume in 1 L Bellco spinner flasks at 60-90 rpm. Cell viability was maintained at 95-100% as determined by trypan blue dye exclusion.
Sf21 cells were infected with a baculovirus expression vector for BTK or SYK, as previously described (refs 18 and 19). […]
Following electrophoresis, kinase gels were dried onto Whatman 3M filter paper and subjected to phosphoimaging on a Molecular Imager (Bio-Rad, Hercules, Calif.) as well as autoradiography on film. […] For each drug concentration, a BTK or SYK kinase activity index was determined by comparing the ratios of the kinase activity in phosphorimager units (PIU) and density of the protein bands in densitometric scanning units (DSU) to those of the baseline sample and using the formula: Activity Index=[PIU of kinase band/DSU of BTK/SYK protein band]test sample: [PIU of kinase band/DSU of BTK/SYK protein band]baseline control sample.

[1] = target: T2, Src family tyrosine kinase HCK (Homo sapiens, UniProt P08631); assay: HCK kinase assay (immunoprecipitated from HCK-transfected COS-7 cells); format: biochemical; conditions: FIG. 1C; 1 hour exposure
T2 construct: expressed in transfected cells; host or cells: COS-7 cells transfected with pSV7c-HCK; immunoprecipitated with anti-HCK antibody
T2 sequence (P08631 whole entry): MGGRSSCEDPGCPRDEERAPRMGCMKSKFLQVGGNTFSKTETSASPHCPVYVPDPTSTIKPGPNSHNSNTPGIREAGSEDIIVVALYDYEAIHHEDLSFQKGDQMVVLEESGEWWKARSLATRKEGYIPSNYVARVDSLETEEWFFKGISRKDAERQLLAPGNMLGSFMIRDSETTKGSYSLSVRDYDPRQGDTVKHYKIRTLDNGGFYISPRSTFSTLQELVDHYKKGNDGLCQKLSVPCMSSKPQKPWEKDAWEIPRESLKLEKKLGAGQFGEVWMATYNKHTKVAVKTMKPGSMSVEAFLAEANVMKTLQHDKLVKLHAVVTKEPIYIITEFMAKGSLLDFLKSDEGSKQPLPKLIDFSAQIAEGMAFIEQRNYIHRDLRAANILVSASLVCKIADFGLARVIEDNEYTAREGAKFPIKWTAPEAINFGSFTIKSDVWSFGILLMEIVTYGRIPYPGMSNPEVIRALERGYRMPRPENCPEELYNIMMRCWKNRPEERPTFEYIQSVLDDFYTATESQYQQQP
Protocol: For HCK kinase assays, HCK-transfected COS-7 cells were used. The cloning and expression of HCK in COS-7 cells has been described previously (ref 18). The pSV7c-HCK plasmid was transfected into 2×10^6 COS-7 cells using Lipofectamine (GIBCO/BRL), and the cells were harvested 48 hours later. The cells were lysed in NP-40 buffer and HCK was immunoprecipitated from the whole cell lysates with an anti-HCK antibody. Kinase assays were performed following a 1 hour exposure of the purified (BTK, SYK) or immunoprecipitated (HCK) tyrosine kinases to the test compound, as described in detail elsewhere (refs 18-22). Following electrophoresis, kinase gels were dried onto Whatman 3M filter paper and subjected to phosphoimaging on a Molecular Imager (Bio-Rad, Hercules, Calif.) as well as autoradiography on film. […] For each drug concentration, a BTK or SYK kinase activity index was determined by comparing the ratios of the kinase activity in phosphorimager units (PIU) and density of the protein bands in densitometric scanning units (DSU) to those of the baseline sample and using the formula: Activity Index=[PIU of kinase band/DSU of BTK/SYK protein band]test sample: [PIU of kinase band/DSU of BTK/SYK protein band]baseline control sample.

HaCaT cells = assay: PGE2 release from UVB-irradiated HaCaT cells; format: cell-based, human; conditions: 20 mJ/cm^2 UVB, 24 hours post irradiation; FIG. 5
Description: A bank of 8-FSX24T12/HO/UVB lamps (National Biological Corporation, Twinsburg, Ohio) that emit light predominantly in the UVB range (280-320 nm) was used to irradiate the cell cultures. The performance of the UVB lamps was always confirmed before irradiation using a UVB meter (model-500C obtained from National Biological Corporation, Twinsburg, Ohio). The dose of UVB light used to irradiate cell cultures was 20 mJ/cm^2. Confluent HaCaT cells cultured in 24-well culture dishes were washed three times with serum-free DMEM containing 1% BSA and incubated with indicated concentrations of compound D-58 for 1 hour at 37° C. […] Compound D-58 was readministered after irradiation and the cells were incubated for another 24 hours at 37° C. The cell supernatants were collected and their PGE2 concentration was measured by ELISA. The protein contents of the cell pellets were determined using the Pierce BCA protein assay method.
One of the major arachidonic acid metabolites in UVB-irradiated epidermal cells is prostaglandin E2 (PGE2), which induces edema and erythema in skin (refs 34 and 35). PGE2 release can be detected as early as 6 hours and peaks between 24-48 hours following UVB exposure. […]
To summarize, confluent monolayers of the human epidermal cell line HaCaT were either irradiated with UVB (20 mJ/cm^2) or sham irradiated. […] The drug was readministered after UVB exposure. […]

T1 sequence (Q06187 whole entry, species assumed): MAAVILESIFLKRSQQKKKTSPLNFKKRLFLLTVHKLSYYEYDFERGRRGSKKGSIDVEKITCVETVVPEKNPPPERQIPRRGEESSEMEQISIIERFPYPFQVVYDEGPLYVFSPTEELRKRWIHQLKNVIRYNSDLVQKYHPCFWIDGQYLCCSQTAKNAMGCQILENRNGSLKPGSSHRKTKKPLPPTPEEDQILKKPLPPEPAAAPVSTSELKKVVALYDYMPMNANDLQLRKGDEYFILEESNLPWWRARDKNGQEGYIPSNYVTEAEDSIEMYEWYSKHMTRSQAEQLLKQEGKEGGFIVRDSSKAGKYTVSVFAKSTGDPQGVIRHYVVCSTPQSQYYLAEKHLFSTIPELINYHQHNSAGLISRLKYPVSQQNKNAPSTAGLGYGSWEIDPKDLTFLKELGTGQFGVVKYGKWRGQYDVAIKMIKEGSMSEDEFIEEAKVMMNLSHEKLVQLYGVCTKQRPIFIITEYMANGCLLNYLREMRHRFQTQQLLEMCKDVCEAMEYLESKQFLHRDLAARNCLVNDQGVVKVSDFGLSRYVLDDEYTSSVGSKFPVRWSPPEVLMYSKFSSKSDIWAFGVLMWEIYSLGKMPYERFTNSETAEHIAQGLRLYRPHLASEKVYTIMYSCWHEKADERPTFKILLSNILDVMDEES

COc1ccc(CC(=O)c2c(O)cc(O)cc2O)cc1 [Compound D-58] was tested, and the IC50 (BTK; first experiment, FIG. 1A) was 18.6 µM, the IC50 (BTK; second experiment, FIG. 1C) was 35.5 µM and the IC50 [1] was over 200 µM. For the same molecule, the “PGE2 release from UVB irradiated cells” value (HaCaT cells) was “inhibited the PGE2 release”.
